From the NIST ThermoML archive (doi:10.1016/j.jct.2012.06.009)
Numbers after ± are expanded uncertainties.

Assay: activity coefficient (dimensionless); of the first substance listed, at infinite dilution; xn = mol fraction of the nth substance listed
Conditions: 101 kPa, Liquid, Chromatography, x1 = 0

Structure (SMILES)	activity coefficient (314.1 K)	activity coefficient (314.24 K)	activity coefficient (333.26 K)	activity coefficient (333.38 K)	activity coefficient (353.3 K)	activity coefficient (353.25 K)	other results
Cc1ccccc1 [toluene] + CCCCCCCCCCCC(=O)O	1.06 ± 0.088	1.08 ± 0.089	1.07 ± 0.088	1.04 ± 0.086	1.05 ± 0.087		
CCOC(C)=O [ethyl acetate] + CCCCCCCCCCCCCCCC(=O)O							activity coefficient (340.19 K): 1.28 ± 0.11; activity coefficient (347.93 K): 1.2 ± 0.1; activity coefficient (358.22 K): 1.16 ± 0.096
CC(C)O [propan-2-ol] + CCCCCCCCCC(=O)O	1.56 ± 0.13	1.58 ± 0.13	1.35 ± 0.11	1.36 ± 0.11	1.15 ± 0.097	1.2 ± 0.1	
COc1ccccc1 [anisole] + CCCCCCCCCCCCCC(=O)O	1.32 ± 0.11	1.3 ± 0.11	1.29 ± 0.11	1.27 ± 0.11	1.21 ± 0.1	1.24 ± 0.1	
CC(C)=O [acetone] + CCCCCCCCCCCCCCCC(=O)O							activity coefficient (340.17 K): 1.49 ± 0.13; activity coefficient (340.19 K): 1.49 ± 0.13; activity coefficient (347.93 K): 1.41 ± 0.12; activity coefficient (348.01 K): 1.42 ± 0.12; activity coefficient (358.23 K): 1.32 ± 0.11; activity coefficient (358.32 K): 1.34 ± 0.11
ClCc1ccccc1 [(chloromethyl)benzene] + CCCCCCCCCCCCCCCC(=O)O							activity coefficient (348.01 K): 1.62 ± 0.14; activity coefficient (358.22 K): 1.57 ± 0.13
Cc1ccccc1 [toluene] + CCCCCCCCCCCCCC(=O)O							activity coefficient (338.27 K): 0.926 ± 0.076; activity coefficient (338.29 K): 1.01 ± 0.083; activity coefficient (348.2 K): 0.958 ± 0.079; activity coefficient (358.33 K): 0.93 ± 0.077
CCO [ethanol] + CCCCCCCCCCCCCCCC(=O)O							activity coefficient (340.19 K): 1.93 ± 0.17; activity coefficient (348.01 K): 1.8 ± 0.15; activity coefficient (358.23 K): 1.62 ± 0.14
C1CCCCC1 [cyclohexane] + CCCCCCCCCCCCCCCC(=O)O							activity coefficient (340.19 K): 1.03 ± 0.085; activity coefficient (348.01 K): 1.02 ± 0.084; activity coefficient (358.22 K): 1.01 ± 0.083
CC(C)=O [acetone] + CCCCCCCCCCCC(=O)O	1.59 ± 0.14	1.59 ± 0.14	1.45 ± 0.12	1.47 ± 0.12	1.36 ± 0.12	1.33 ± 0.11	
CC(C)=O [acetone] + CCCCCCCCCC(=O)O	1.56 ± 0.13		1.46 ± 0.12	1.47 ± 0.12		1.34 ± 0.11	
CC(C)O [propan-2-ol] + CCCCCCCCCCCC(=O)O	1.5 ± 0.13	1.53 ± 0.13	1.33 ± 0.11	1.37 ± 0.12	1.24 ± 0.1	1.22 ± 0.1	
Cc1ccccc1 [toluene] + CCCCCCCCCC(=O)O	1.15 ± 0.095	1.17 ± 0.097	1.12 ± 0.093	1.12 ± 0.092	1.16 ± 0.096	1.14 ± 0.095	
Clc1ccccc1 [chlorobenzene] + CCCCCCCCCCCCCC(=O)O	0.983 ± 0.081	0.998 ± 0.082	0.996 ± 0.082	0.982 ± 0.081	0.961 ± 0.079	0.979 ± 0.081	
CC(C)=O [acetone] + CCCCCCCCCCCCCC(=O)O	1.43 ± 0.12	1.46 ± 0.12	1.36 ± 0.11	1.35 ± 0.11	1.27 ± 0.11	1.3 ± 0.11	
CCc1ccccc1 [ethylbenzene] + CCCCCCCCCCCCCC(=O)O							activity coefficient (338.27 K): 1.06 ± 0.087; activity coefficient (348.3 K): 1.06 ± 0.087; activity coefficient (358.33 K): 1.04 ± 0.085
ClCc1ccccc1 [(chloromethyl)benzene] + CCCCCCCCCCCC(=O)O							activity coefficient (358.06 K): 1.71 ± 0.15; activity coefficient (358.1 K): 1.71 ± 0.15
C=CCCCC [hex-1-ene] + CCCCCCCCCCCCCCCC(=O)O							activity coefficient (340.17 K): 1.17 ± 0.097; activity coefficient (348.01 K): 1.18 ± 0.098; activity coefficient (358.22 K): 1.2 ± 0.1

Further lines, with some results ahead:

activity coefficient (314.1 K)	activity coefficient (314.24 K)	activity coefficient (333.26 K)	activity coefficient (333.38 K)	activity coefficient (353.3 K)	activity coefficient (353.25 K)	Structure (SMILES)	other results
1.45 ± 0.12	1.5 ± 0.13	1.35 ± 0.11	1.4 ± 0.12	1.27 ± 0.11		ClCCCl [1,2-dichloroethane] + CCCCCCCCCC(=O)O	
1.82 ± 0.16	1.79 ± 0.15	1.67 ± 0.14	1.67 ± 0.14	1.52 ± 0.13	1.53 ± 0.13	CCO [ethanol] + CCCCCCCCCCCCCC(=O)O	
1.37 ± 0.12	1.36 ± 0.11		1.28 ± 0.11	1.21 ± 0.1	1.2 ± 0.1	CCOC(C)=O [ethyl acetate] + CCCCCCCCCCCC(=O)O	
1.45 ± 0.12	1.47 ± 0.12		1.43 ± 0.12	1.4 ± 0.12	1.4 ± 0.12	CCCCCCC [heptane] + CCCCCCCCCCCCCC(=O)O	
1.61 ± 0.14	1.65 ± 0.14	1.52 ± 0.13	1.51 ± 0.13	1.37 ± 0.12	1.37 ± 0.12	CCCO [propan-1-ol] + CCCCCCCCCCCCCC(=O)O	
1.33 ± 0.11	1.35 ± 0.11	1.17 ± 0.097	1.16 ± 0.096	1.04 ± 0.085	1.05 ± 0.087	CCC(C)O (stereo unspecified) [butan-2-ol] + CCCCCCCCCC(=O)O	
1.87 ± 0.16	1.9 ± 0.16	1.83 ± 0.16	1.82 ± 0.16	1.75 ± 0.15		CCCCCCC [heptane] + CCCCCCCCCC(=O)O	
1.65 ± 0.14	1.67 ± 0.14	1.67 ± 0.14	1.66 ± 0.14	1.62 ± 0.14	1.59 ± 0.14	CCCCCCC [heptane] + CCCCCCCCCCCC(=O)O	
1.38 ± 0.12	1.37 ± 0.12	1.3 ± 0.11	1.32 ± 0.11		1.23 ± 0.1	ClCCCl [1,2-dichloroethane] + CCCCCCCCCCCC(=O)O	
1.21 ± 0.1	1.24 ± 0.1	1.2 ± 0.099	1.18 ± 0.098	1.13 ± 0.093	1.13 ± 0.094	ClCCCl [1,2-dichloroethane] + CCCCCCCCCCCCCC(=O)O	
1.76 ± 0.15	1.78 ± 0.15	1.57 ± 0.13	1.6 ± 0.14	1.43 ± 0.12	1.43 ± 0.12	CCCO [propan-1-ol] + CCCCCCCCCCCC(=O)O	
2.02 ± 0.17	1.98 ± 0.17	1.91 ± 0.16			1.86 ± 0.16	CC(C)CC(C)(C)C [2,2,4-trimethylpentane] + CCCCCCCCCC(=O)O	
1.89 ± 0.16	1.92 ± 0.17	1.57 ± 0.13	1.6 ± 0.14	1.35 ± 0.12	1.41 ± 0.12	CCCO [propan-1-ol] + CCCCCCCCCC(=O)O	
1.24 ± 0.1	1.21 ± 0.1	1.19 ± 0.099	1.19 ± 0.099	1.12 ± 0.093	1.13 ± 0.094	CCOC(C)=O [ethyl acetate] + CCCCCCCCCCCCCC(=O)O	
	1.57 ± 0.13	1.53 ± 0.13	1.54 ± 0.13		1.5 ± 0.13	CCCCCC [hexane] + CCCCCCCCCCCC(=O)O	
1.75 ± 0.15	1.77 ± 0.15	1.73 ± 0.15	1.7 ± 0.14	1.65 ± 0.14		CCCCCC [hexane] + CCCCCCCCCC(=O)O	
